Data from patent publication EP3878460A1, “GREEN TEA EXTRACT HAVING MODIFIED CONSTITUENT CONTENT AND COMPOSITION COMPRISING SAME” (priority 2018, dated 2020).

Assays:
[1] = test system: HepG2 human liver cancer cells; assay: Inhibition of lipid accumulation in hepatocytes (Oil Red O staining, stearic acid load); assay type: cell-based; details: 100 µM stearic acid, 48 hours, FIG. 8
Method: In order to investigate the effect of inhibiting lipid accumulation in hepatocytes of the green tea extract sample 1 and sample 2 of Example 1, the inhibition of fat accumulation was compared after culturing HepG2 human liver cancer cells and treating with each sample.
Specifically, hepatocytes (HepG2 cells) were seeded onto a 12-well plate (Falcon) with 1×10^6 cells per well and cultured in a 5% CO2 incubator at 37 °C for 24 hours. Then, after treating with each of the sample 1 and the sample 2 at 3, 10 or 30 µg/mL and 100 µM stearic acid conjugated with bovine serum albumin (BSA), the cells were cultured for 48 hours. After removing the medium and washing with PBS, the cells were fixed with 4% formaldehyde. After incubating with 100% propylene glycol for 5 minutes, the fat in the cells was stained by adding 500 µL of Oil Red O solution (Sigma) per well and culturing the cells for 2 hours. […] After transferring 200 µL of the isopropanol solution to a 96-well plate, the fat accumulated in the cells was quantified by measuring absorbance at 485 nm. The Oil Red O content (%) relative to a control group (0.1% (v/v) DMSO) was calculated by the following equation. Oil red O content (%) = (absorbanceofsample-treatedgroup−absorbanceofcontrolgroup) × 100 [formula] […]

[2] = test system: hepatocytes (HepG2 cells); assay: Hepacytotoxicity, cell viability by MTS assay
Method: In order to investigate the hepatotoxicity of the high-temperature-processed green tea extract obtained in Example 1 (sample 2), hepatocytes (HepG2 cells) acquired from Korean Cell Line Bank were seeded onto a 96-well plate (Falcon) with 1×10^5 cells per well and cultured for 24 hours in a 5% CO2 incubator at 37 °C. Then, after treating with the sample 1 or sample 2 at 5, 10, 25, 50 or 100 µg/mL and culturing further for 24 hours, the medium was removed and cell viability was investigated using a CellTiter 96 AQueous One Solution cell proliferation assay kit (MTS, Promega Co. Madison, WI, USA). After treating the cells with 20 µL of a CellTiter 96 AQueous One Solution cell proliferation assay kit (MTS, Promega Co. Madison, WI, USA) solution added to 100 µL of RPMI1640 (Lonza), the number of live cells was quantified by measuring absorbance at 490 nm. The cell number or cell viability (%) was calculated by the following equation. Cell viability (%) = (absorbanceofsample-treatedgroup−absorbanceofreagentalone)/(absorbanceofnon-treatedgroup−absorbanceofreagentalone) × 100 [formula]
After treating the cells with 20 µL of a CellTiter 96 AQueous One Solution cell proliferation assay kit (MTS, Promega Co. Madison, WI, USA) solution added to 100 µL of RPMI1640 (Lonza), the number of live cells was quantified by measuring absorbance at 490 nm. The cell number or cell viability (%) was calculated as described in Test Example 1.

[3] = test system: hepatocytes (HepG2 cells); assay type: cell-based, human
Method: The experimental condition was the same as in Test Example 1. After treating the cells with the sample 1 or sample 2, the levels of malate dehydrogenase 1 (MDH 1), α-glutathione S-transferase (GSTα) and sorbitol dehydrogenase (SDH) in the cell culture were measured 24 later.
In order to investigate the effect of the EGCG, GCG and EGC among the eight catechins on hepatocyte damage, release of enzymes from hepatocytes due to hepatocyte damage was analyzed using the MILLIPLEX Analyst software (Millipore). The experimental condition was the same as in Test Example 3. After treating the cells with EGCG, GCG or EGC, the levels of malate dehydrogenase 1 (MDH 1), α-glutathione S-transferase (GSTα) and sorbitol dehydrogenase (SDH) in the cell culture were measured 24 later.

[4] = HepG2 cells, 10, 50, 100 or 200 µM, 24 hours, calculated from cell viability

Compound	LD50 [2, 4] [µM]	other results
O=C(O[C@@H]1Cc2c(O)cc(O)cc2O[C@H]1c1cc(O)c(O)c(O)c1)c1cc(O)c(O)c(O)c1 [GCG, gallocatechin gallate]	212.7	effect of inhibiting lipid accumulation in hepatocytes compared to EGCG at the same concentration [1]: remarkably excellent effect of inhibiting lipid accumulation in hepatocytes
Oc1cc(O)c2c(c1)O[C@H](c1ccc(O)c(O)c1)[C@H](O)C2 [EC, (-)epicatechin]	–	LD50 ([2]; human, 24 h): 505.0 µM
epicatechin 3-O-gallate [ECG]	209.0	–
O=C(O[C@@H]1Cc2c(O)cc(O)cc2O[C@@H]1c1cc(O)c(O)c(O)c1)c1cc(O)c(O)c(O)c1 [EGCG, epigallocatechin gallate]	355.5	–
Oc1cc(O)c2c(c1)O[C@H](c1cc(O)c(O)c(O)c1)[C@@H](O)C2 [GC, gallocatechin]	236.2	–
Oc1cc(O)c2c(c1)O[C@H](c1cc(O)c(O)c(O)c1)[C@H](O)C2 [EGC, epigallocatechin]	183.9	hepacytotoxicity among the eight catechins [2]: highest hepacytotoxicity; levels of the three enzymes (MDH 1, GSTα, SDH) in the cell culture [3]: highest
